The results in this text go back to patent US12545673B2, “Imidazopyridine derivative and pharmaceutical composition comprising same as active ingredient” (TSD LIFE SCIENCES CO., LTD., priority 2019, dated 2026).

Structures are written as SMILES. Like-named read-outs stand apart in the source and are kept apart here.

For data set [1], the system named is human breast cancer cell line MDA-MB-231. Put plainly: Cancer cell proliferation inhibitory activity evaluation 1 (CCK-8), MDA-MB-231. It is filed as cell-based.
For data set [2], the system named is acute myeloid leukemia cell line U937. Put plainly: Cancer cell proliferation inhibitory activity evaluation 1 (CCK-8), U937. It is filed as cell-based. Particulars: Homo sapiens, read-out: Cancer cell proliferation inhibitory activity U937.
Data set [3] deals with colorectal cancer cell line HT-29. Put plainly: Cancer cell proliferation inhibitory activity evaluation 1 (CCK-8), HT-29. The format is cell-based. To be noted: Homo sapiens, read-out: Cancer cell proliferation inhibitory activity HT29.
In data set [4] the test system is chronic myeloid leukemia cell line K562. Put plainly: Cancer cell proliferation inhibitory activity evaluation 1 (CCK-8), K562. It is filed as cell-based. To be noted: Homo sapiens, read-out: Cancer cell proliferation inhibitory activity K562.
Data set [5] deals with acute myeloid leukemia cell line U937. Nature of the data set: Cancer cell proliferation inhibitory activity evaluation 2 (CCK-8), U937. The format is cell-based. To be noted: Homo sapiens, read-out: Cancer cell proliferation inhibitory activity U937.
The test system of data set [6] is acute lymphoblastic leukemia cell line Jurkat. Put plainly: Cancer cell proliferation inhibitory activity evaluation 2 (CCK-8), Jurkat. It is filed as cell-based. Particulars: Homo sapiens.
Data set [7] relates to gastric cancer cell line AGS. Nature of the data set: Cancer cell proliferation inhibitory activity evaluation 2 (CCK-8), AGS. It is filed as cell-based. To be noted: Homo sapiens, read-out: Cancer cell proliferation inhibitory activity AGS.
The subject of data set [8] is influenza virus PR8. Put plainly: microbe, parasite or virus in culture. The format is cell-based. Particulars: unidentified influenza virus, PR8, MDCK, read-out: Antiviral activity (EC50, μM) PR8.
Data set [9] has as its system influenza virus HK. Put plainly: microbe, parasite or virus in culture. The format is cell-based. Particulars: for EC50: unidentified influenza virus, MDCK, read-out: Antiviral activity (EC50, μM) HK.
Data set [10] deals with influenza virus LE. Nature of the data set: microbe, parasite or virus in culture. The format is cell-based. To be noted: for EC50: unidentified influenza virus, MDCK, read-out: Antiviral activity (EC50, μM) LE.
Data set [11] in a line: in vitro. Particulars: dog.
Data set [12] concerns the target MLK1 (Homo sapiens (Human), UniProt P80192). Put plainly: Evaluation of inhibitory activity of enzyme units, MLK1 ([γ-33P]-ATP filter assay). It is filed as biochemical.
For data set [13], the system named is α-SMA. Nature of the data set: Fibrosis inhibition evaluation 1, palmitic acid-induced HepG2, real-time PCR, α-SMA. The format is cell-based, human. Particulars: palmitic acid-induced HepG2 (Table 6). (Real-time PCR tracks product formation cycle by cycle.)
In data set [14] the test system is Col1A1. Nature of the data set: Fibrosis inhibition evaluation 1, palmitic acid-induced HepG2, real-time PCR, Col1A1. It is filed as cell-based, human.
The subject of data set [15] is Col6A3. Put plainly: Fibrosis inhibition evaluation 1, palmitic acid-induced HepG2, real-time PCR, Col6A3. The format is cell-based, human.
For data set [16], the target named is LRRK2 wild-type (Homo sapiens (Human), UniProt Q5S007). Put plainly: Evaluation of inhibitory activity against LRRK2 (affinity bead competition binding), wild-type. Particulars: read-out: Residual active values (%) LRRK2; for remaining binding at 0.1 µM: 100 nM; for remaining binding at 0.5 µM: 500 nM. The essentials: (§1)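 Competition binding against immobilized biotinylated ligand for DNA-tagged wild-type or G2019S LRRK2, produced from T7 phage-infected E. coli (MOI 0.4, 32° C.) lysate then HEK293 cells. Beads blocked and washed in SeaBlock buffer (1% BSA, 0.05% Tween 20, 1 mM DTT); compounds prepared as 40× stocks in 100% DMSO.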

Data set [17] addresses LRRK2 mutant (G2019S) (Homo sapiens (Human), UniProt Q5S007, G2019S). Nature of the data set: Evaluation of inhibitory activity against LRRK2 (affinity bead competition binding), G2019S mutant. Particulars: read-out: Residual active values (%) LRRK2(G2019S); for remaining binding at 0.1 µM: 100 nM; for remaining binding at 0.5 µM: 500 nM. The essentials:
as §1

Data set [18] deals with MLK3 (Homo sapiens (Human), UniProt Q16584). Nature of the data set: Evaluation of inhibitory activity of enzyme units, MLK3 ([γ-33P]-ATP filter assay). Particulars: read-out: IC50(nM) MLK3.
In data set [19] the target is MLK2 (Homo sapiens (Human), UniProt Q02779). Nature of the data set: Evaluation of inhibitory activity of enzyme units, MLK2 ([γ-33P]-ATP filter assay). The format is biochemical.
For data set [20], the system named is α-SMA. Put plainly: Fibrosis inhibition evaluation 2, palmitic acid-induced HepG2, real-time PCR, α-SMA. Particulars: palmitic acid-induced HepG2 (Table 8).
The subject of data set [21] is TGF-β1. Nature of the data set: Fibrosis inhibition evaluation 2, palmitic acid-induced HepG2, real-time PCR, TGF-β1.
Data set [22] has as its system Fibronectin-1. Put plainly: Fibrosis inhibition evaluation 2, palmitic acid-induced HepG2, real-time PCR, Fibronectin-1.
The mark [23] stands for this setting: 72 h, read-out: Cancer cell proliferation inhibitory activity Jurkat.

Sequence of MLK1 (P80192 whole entry, looked up): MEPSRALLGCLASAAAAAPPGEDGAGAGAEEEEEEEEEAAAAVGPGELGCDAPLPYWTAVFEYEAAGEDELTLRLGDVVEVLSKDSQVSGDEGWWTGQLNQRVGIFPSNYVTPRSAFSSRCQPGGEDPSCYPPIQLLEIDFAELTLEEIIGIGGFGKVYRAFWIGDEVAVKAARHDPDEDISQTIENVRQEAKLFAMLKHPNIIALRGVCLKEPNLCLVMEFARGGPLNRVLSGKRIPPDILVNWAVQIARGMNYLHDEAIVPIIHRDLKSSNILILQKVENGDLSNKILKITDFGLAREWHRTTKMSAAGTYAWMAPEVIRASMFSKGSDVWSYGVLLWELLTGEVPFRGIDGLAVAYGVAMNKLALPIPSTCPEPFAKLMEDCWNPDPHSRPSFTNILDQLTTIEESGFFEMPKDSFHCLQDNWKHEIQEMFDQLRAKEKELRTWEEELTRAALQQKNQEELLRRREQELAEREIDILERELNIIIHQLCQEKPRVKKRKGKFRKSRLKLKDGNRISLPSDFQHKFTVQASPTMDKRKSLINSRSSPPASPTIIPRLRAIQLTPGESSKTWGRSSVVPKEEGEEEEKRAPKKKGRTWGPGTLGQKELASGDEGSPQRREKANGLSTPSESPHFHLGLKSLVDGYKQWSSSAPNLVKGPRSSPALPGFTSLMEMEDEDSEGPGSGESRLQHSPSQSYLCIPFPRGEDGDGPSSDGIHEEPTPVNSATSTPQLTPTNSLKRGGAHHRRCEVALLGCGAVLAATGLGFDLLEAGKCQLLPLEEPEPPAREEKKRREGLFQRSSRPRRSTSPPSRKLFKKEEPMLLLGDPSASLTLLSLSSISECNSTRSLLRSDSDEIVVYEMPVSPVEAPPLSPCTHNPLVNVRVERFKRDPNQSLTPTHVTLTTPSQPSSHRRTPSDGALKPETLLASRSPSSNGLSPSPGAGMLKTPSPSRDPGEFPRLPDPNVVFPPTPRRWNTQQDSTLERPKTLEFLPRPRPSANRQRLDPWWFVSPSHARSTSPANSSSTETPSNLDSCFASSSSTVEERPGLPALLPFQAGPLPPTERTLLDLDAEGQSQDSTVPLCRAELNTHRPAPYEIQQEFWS
Sequence of MLK3 (Q16584 whole entry, looked up): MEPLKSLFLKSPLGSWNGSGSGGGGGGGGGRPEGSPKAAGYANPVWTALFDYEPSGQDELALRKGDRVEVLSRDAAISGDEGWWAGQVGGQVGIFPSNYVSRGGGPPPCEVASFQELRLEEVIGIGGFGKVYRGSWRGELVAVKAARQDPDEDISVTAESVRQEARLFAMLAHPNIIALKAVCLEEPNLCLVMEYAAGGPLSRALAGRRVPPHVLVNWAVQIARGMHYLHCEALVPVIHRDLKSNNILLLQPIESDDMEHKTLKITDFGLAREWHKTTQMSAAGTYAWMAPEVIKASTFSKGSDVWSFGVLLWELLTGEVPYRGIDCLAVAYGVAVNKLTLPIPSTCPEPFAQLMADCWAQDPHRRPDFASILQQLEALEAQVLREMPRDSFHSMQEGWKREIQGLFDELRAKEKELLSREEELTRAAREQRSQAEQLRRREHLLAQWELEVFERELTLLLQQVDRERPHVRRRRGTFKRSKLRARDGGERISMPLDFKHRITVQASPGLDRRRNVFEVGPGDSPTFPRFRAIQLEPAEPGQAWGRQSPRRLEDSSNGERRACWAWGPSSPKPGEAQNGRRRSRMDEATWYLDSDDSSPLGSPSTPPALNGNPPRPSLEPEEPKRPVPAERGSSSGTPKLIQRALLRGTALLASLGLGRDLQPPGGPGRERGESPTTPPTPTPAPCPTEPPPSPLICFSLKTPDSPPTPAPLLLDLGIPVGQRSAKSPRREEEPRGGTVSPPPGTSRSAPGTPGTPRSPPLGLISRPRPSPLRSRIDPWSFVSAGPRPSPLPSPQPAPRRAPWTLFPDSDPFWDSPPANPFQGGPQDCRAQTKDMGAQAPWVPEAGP
Sequence of LRRK2 mutant (G2019S) (Q5S007 whole entry G2019S, looked up): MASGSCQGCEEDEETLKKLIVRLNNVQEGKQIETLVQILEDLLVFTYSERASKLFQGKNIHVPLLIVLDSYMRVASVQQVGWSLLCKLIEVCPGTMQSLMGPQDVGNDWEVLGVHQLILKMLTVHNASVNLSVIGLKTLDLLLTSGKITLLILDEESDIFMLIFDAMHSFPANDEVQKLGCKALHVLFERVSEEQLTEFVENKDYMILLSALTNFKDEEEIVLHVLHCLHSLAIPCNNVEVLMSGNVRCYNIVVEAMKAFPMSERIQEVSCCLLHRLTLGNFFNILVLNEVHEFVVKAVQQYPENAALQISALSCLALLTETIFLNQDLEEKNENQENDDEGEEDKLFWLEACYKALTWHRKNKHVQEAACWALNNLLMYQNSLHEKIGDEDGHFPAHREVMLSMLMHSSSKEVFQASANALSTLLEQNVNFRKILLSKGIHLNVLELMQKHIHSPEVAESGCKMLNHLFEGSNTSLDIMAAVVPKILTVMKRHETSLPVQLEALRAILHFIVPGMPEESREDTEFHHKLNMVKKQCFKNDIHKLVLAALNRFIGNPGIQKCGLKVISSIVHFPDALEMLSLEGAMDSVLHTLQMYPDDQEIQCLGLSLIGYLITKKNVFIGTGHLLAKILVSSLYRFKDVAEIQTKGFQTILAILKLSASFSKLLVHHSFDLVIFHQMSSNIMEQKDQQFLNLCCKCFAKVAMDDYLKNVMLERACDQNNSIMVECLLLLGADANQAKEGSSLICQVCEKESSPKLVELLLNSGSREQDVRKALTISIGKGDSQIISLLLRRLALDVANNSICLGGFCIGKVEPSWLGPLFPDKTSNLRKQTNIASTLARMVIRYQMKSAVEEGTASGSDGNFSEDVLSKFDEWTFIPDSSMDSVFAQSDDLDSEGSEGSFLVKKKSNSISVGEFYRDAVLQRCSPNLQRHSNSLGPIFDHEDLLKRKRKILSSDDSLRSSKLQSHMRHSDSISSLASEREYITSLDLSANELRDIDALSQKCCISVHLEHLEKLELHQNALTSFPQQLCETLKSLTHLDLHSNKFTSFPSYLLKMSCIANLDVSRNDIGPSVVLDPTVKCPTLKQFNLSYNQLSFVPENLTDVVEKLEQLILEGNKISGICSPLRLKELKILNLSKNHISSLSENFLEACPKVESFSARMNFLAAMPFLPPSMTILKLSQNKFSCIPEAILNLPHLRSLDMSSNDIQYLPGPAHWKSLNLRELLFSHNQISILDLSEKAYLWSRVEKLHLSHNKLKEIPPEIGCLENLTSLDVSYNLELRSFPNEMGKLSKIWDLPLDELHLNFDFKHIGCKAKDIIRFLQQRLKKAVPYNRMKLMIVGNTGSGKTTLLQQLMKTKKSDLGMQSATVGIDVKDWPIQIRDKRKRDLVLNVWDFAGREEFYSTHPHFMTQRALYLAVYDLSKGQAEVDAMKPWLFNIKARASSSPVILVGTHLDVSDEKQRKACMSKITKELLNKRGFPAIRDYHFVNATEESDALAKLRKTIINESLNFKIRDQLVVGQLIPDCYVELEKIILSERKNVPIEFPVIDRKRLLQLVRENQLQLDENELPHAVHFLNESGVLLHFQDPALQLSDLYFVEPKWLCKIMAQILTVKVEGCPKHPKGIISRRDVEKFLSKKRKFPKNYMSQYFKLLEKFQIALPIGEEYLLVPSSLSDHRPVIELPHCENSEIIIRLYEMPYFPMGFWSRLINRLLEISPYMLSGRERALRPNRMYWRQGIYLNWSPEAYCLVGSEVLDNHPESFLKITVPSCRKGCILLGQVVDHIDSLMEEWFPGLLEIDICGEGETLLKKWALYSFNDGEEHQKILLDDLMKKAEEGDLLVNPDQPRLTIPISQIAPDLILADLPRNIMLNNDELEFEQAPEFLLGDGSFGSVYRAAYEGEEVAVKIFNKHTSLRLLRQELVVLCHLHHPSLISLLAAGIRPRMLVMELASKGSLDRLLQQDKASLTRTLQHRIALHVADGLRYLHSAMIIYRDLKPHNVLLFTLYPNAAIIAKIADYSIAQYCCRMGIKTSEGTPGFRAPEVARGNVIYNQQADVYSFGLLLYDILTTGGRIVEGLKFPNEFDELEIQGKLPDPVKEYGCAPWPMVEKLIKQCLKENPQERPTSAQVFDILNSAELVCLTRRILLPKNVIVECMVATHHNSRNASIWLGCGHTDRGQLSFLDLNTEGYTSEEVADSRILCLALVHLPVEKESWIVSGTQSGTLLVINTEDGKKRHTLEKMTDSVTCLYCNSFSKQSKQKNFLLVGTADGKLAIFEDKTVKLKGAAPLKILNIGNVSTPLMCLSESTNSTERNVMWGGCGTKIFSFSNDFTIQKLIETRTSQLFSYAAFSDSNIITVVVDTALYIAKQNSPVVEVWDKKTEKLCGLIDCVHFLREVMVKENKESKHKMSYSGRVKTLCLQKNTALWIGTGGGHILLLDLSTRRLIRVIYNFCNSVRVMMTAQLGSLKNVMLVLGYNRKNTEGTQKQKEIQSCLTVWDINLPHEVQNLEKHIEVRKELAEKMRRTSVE
Sequence of LRRK2 wild-type (Q5S007 whole entry, looked up): as the sequence (Q5S007 whole entry G2019S, looked up) above, with S2019G counted along it

One may read the EC50 as the concentration at which the effect is half-maximal. Take `CCS(=O)(=O)N1CC[C@H](Nc2c(Br)cnc3nc(-c4cc(C)n(-c5ccc(OCCN6CCOCC6)cc5)c4C)[nH]c23)C1` [Example 4, (S)-6-bromo-2-(2,5-dimethyl-1-(4-(2-morpholinoethoxy)phenyl)-1H-pyrrol-3-yl)-N-(1-(ethylsulfonyl)pyrrolidine-3-yl)-1H-imidazo[4,5-b]pyridine-7-amine]: the inhibition at 10 µM was 10 to 50% in data set [1] (MDA-MB-231, 10 μM, 72 hours, CCK-8, read-out: Cancer cell proliferation inhibitory activity MDAMB231); > 50% in data set [2] (U-937, 10 μM, 72 hours, CCK-8 (Table 2)); > 50% in data set [3] (HT-29, 10 μM, 72 hours, CCK-8); > 50% in data set [4] (K562, 10 μM, 72 hours, CCK-8); > 50% in data set [5] (U-937, 10 μM, 72 hours, CCK-8 (Table 3)); > 50% in data set [6] (10 μM, 72 hours, CCK-8, read-out: Cancer cell proliferation inhibitory activity Jurkat). For the same compound, in data set [7] (10 μM, 72 hours, CCK-8), the inhibition at 10 µM was > 50%. For the same compound, the EC50 in data set [8] turned out to be 11.1 µM; in data set [9], 9.8 µM; in [10] it was 9.9 µM. Also, in data set [9], the “Selectivity index: CC50/EC50 HK” value is recorded as >10.2. Besides, the “Selectivity index: CC50/EC50 LE” value in data set [10] is reported as >10.1. The CC50 at 3 days in data set [11] was > 100 µM.
A word on the IC50: it is the concentration needed to halve the response being measured. For the compound `CCS(=O)(=O)N1CC[C@H](Nc2c(Br)cnc3[nH]c(-c4cc(C)n(-c5cc(NS(C)(=O)=O)ccc5C)c4C)nc23)C1` [Example 7, N-(3-(3-(6-bromo-7-(((S)-1-(ethylsulfonyl)pyrrolidine-3-yl)amino)-3H-imidazo[4,5-b]pyridine-2-yl)-2,5-dimethyl-1H-pyrrol-1-yl)-4-methylphenyl) methanesulfonamide], the half-maximal inhibitory concentration (IC50) in [12] stood at 44 nM; in data set [18], 6 nM. Moreover, the inhibition at 10 µM in data set [1] (MDA-MB-231, 72 h, read-out: Cancer cell proliferation inhibitory activity MDAMB231) is 10 to 50%; in [2] (U-937, 72 h), > 50%; in data set [3] (HT-29, 72 h), 10 to 50%; in data set [4] (K562, 72 h), > 50%; in [5] (U-937, 72 h), > 50%; in data set [6] (setting [23]), > 50%. The inhibition at 10 µM in [7] (72 h) was > 50%. Moreover, in data set [13], the “Relative degree of expression inhibition (%) α-SMA” value worked out at 73.1%. Further, the “Relative degree of expression inhibition (%) Col1A1” value in data set [14] amounted to 200.2%. The “Relative degree of expression inhibition (%) Col6A3” value in data set [15] is recorded as 116.2%. The remaining binding at 0.1 µM was found to be 2.9% in data set [16] and 2.3% in data set [17]. For the same compound, the figures for the remaining binding at 0.5 µM in data set [16] and in data set [17] were 0.4% and 1.5%, respectively. The half-maximal effective concentration (EC50) is 31.9 µM in data set [8], 40 µM in data set [9] and > 100 µM in data set [10]. Also, the “Selectivity index: CC50/EC50 HK” value in data set [9] is on record as >2.5. Further, in data set [11], the CC50 at 3 days was > 100 µM.
`CCS(=O)(=O)N1CC[C@H](Nc2c(Br)cnc3nc(-c4cc(C)n(-c5cccc(NS(C)(=O)=O)c5)c4C)[nH]c23)C1` [Example 12, (S)—N-(3-(3-(6-bromo-7-((1-(ethylsulfonyl)pyrrolidine-3-yl)amino)-1H-imidazo[4,5-b]pyridine-2-yl)-2,5-dimethyl-1H-pyrrol-1-yl)phenyl) methanesulfonamide]: the IC50 in [19] stood at 65 nM; in data set [12] it was 52 nM; in data set [18], 7 nM. The inhibition at 10 µM in data set [5] (U-937, 72 h) was 10 to 50%; in [6] (setting [23]), 10 to 50%; in [7] (72 h), > 50%. For the same compound, the remaining binding at 0.1 µM in data set [16] came to 16%; in data set [17] it was 3.6%. Also, the remaining binding at 0.5 µM came to 3.7% in [16] and 0.5% in [17]. For the same compound, the EC50 in data set [8] was 100 µM; in [9] it was 27 µM; in data set [10], > 100 µM. In addition, the “Selectivity index: CC50/EC50 HK” value in [9] is recorded as >3.7. In addition, the CC50 at 3 days in [11] is > 100 µM. Moreover, the “Relative degree of expression inhibition (%) α-SMA” value in data set [20] turned out to be 49.92%. Also, the “Relative degree of expression inhibition (%) TGF-β1” value in [21] came out at 113.03%. Besides, in data set [22], the “Relative degree of expression inhibition (%) Fibronectin-1” value is recorded as 74.32%.
Consider `CCS(=O)(=O)N1CC[C@H](Nc2c(Br)cnc3nc(-c4cc(C)n(-c5cccc(S(N)(=O)=O)c5)c4C)[nH]c23)C1` [Example 23, (S)-3-(3-(6-bromo-7-((1-(ethylsulfonyl)pyrrolidine-3-yl)amino)-1H-imidazo[4,5-b]pyridine-2-yl)-2,5-dimethyl-1H-pyrrol-1-yl)benzenesulfonamide], for which the results for the half-inhibitory concentration (IC50) in data set [19], in data set [12] and in data set [18] were 56 nM, 25 nM and 17 nM, respectively. The inhibition at 10 µM in data set [5] (U-937, 72 h) was 10 to 50%; in [6] (setting [23]) it was > 50%; in data set [7] (72 h), 10 to 50%. Moreover, the EC50 in data set [8] is > 100 µM; in data set [9], 31.6 µM; in data set [10] it was > 100 µM. Also, the “Selectivity index: CC50/EC50 HK” value in data set [9] is given as >3.2. For the same compound, the CC50 at 3 days in data set [11] is > 100 µM.
